Measured values as given in patent US20140088144A1, “INHIBITING MICROBIAL INFECTIONS” (THE UNIVERSITY OF KANSAS, priority 2012, published 2014).

Columns and labels:
[1] = test system: gapA; test: Shigella gene expression qRT-PCR, internal control gapA; format: cell-based, S. flexneri; conditions: for Average ΔΔCt / Ct / RQ (2^−ΔΔCt) / ΔΔCt^2 (normalized to rrsA): gapA, example data
Description: Real-time quantitative reverse transcription PCR (qRT-PCR) was performed to test the effects of SE-1 on the expression of the VirF regulated genes virB, icsA, icsB and ipaB. The gapA and rrsA transcripts were used as internal controls. These are constitutively expressed Shigella genes commonly used to normalize mRNA levels. S. flexneri strain SME4331, which carries a null mutation in ipgD (ipgD), was grown at 30° C. overnight in TSB with ampicillin, diluted into the same medium to an OD600 of ˜0.1, and 1 ml aliquots further grown at 30° C. (DMSO only) or at 37° C. (SE-1 at 20 or 40 μM, or DMSO only, all 0.3% DMSO). Cells were grown to an OD600 of 1.0 (˜2.5 h) and RNA was isolated using an RNeasy MiniElute Cleanup Kit (Qiagen, Germantown, Md.), with DNA contamination eliminated using a Turbo DNase Kit (Ambion, Austin, Tex.). Complementary DNA (cDNA) was synthesized by random priming using a cDNA Reverse Transcription Kit (Applied Biosystems, Foster City, Calif.). Primers were tested for PCR specificity using genomic DNA template to ensure a single amplicon of the expected size for each primer pair, and validated using 5-fold dilutions of cDNA (2000 to 0.0256 ng) to ensure a linear plot of cycle threshold (Ct) versus cDNA concentration. Validated primer sets were used to test mRNA profiles in reactions that contained 10 ng of cDNA, 10 μl of SYBR green master mix (Applied Biosystems), specific primers (0.5 μM each) and water to a final volume of 20 μl, using a Step One Plus Real-Time PCR System (Applied Biosystems). The data was analyzed using the 2^−ΔΔCt method, and also by Applied Biosystems real-time analysis software. […] In brief, ΔΔCt values [ΔΔCt=(Ct,Target−Ct,Internal Control)SE-1−(Ct,Target−Ct,Internal Control)no SE-1] were separately obtained for each sample relative to two internal controls, gapA and rrsA. The ΔΔCt values relative to the two internal controls for each sample were averaged and then used to calculate the relative expression levels (2^−ΔΔCt). As a control, we also normalized each internal control to the other internal control. Control reactions used templates generated without reverse transcriptase to ensure low genomic DNA contamination. To ensure that products were not likely to be due to primer dimer artifacts, additional control samples were performed in which reaction mixtures contained primers alone (no template).

[2] = biological target: T1, LacI (Escherichia coli, UniProt P03023); test: EMSA in vitro DNA binding by LacI; format: biochemical, E. coli; conditions: highest concentrations (dilutions starting at 650 μM)
T1 construct: made in house; host or cells: E. coli
T1 sequence (P03023 whole entry): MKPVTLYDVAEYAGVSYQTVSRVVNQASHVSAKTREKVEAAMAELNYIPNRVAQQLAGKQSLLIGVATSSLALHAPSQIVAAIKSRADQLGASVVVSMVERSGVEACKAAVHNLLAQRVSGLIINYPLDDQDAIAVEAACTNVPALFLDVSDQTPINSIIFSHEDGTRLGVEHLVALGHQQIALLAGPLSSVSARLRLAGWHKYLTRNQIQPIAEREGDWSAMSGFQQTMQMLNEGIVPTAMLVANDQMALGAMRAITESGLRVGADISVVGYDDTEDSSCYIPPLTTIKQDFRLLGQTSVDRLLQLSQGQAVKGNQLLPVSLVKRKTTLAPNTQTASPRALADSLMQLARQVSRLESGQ
Source text: All proteins for this study were expressed in E. coli. Untagged CRP was purified by Ni^2+-affinity chromatography as described. Lad protein was purified by ammonium sulfate precipitation and phosphocellulose column chromatography as described. RhaS-GB1^201b and GB1^b-RhaR were purified by Ni^2+-affinity chromatography. Briefly, plasmids derived from pET21 and expressing RhaS-GB1^201b and GB1^b-RhaR were transformed into competent cells of strains Acella™ (MoBiTec, Gottingen, Germany) or ArcticExpress(DE3) (Agilent Technologies, Santa Clara Calif.), respectively. The cells were grown in 1 liter TY plus ampicillin and rhamnose. Gentamycin was also added for GB1^b-RhaR. The cells were grown to OD600 of 0.5, transferred to a 15° C. shaker, 0.1 mM IPTG was added, and then incubated overnight. Cells were harvested by centrifugation and then resuspended in 30 mL of cold binding buffer (20 mM Tris, 500 mM NaCl, 5 mM imidazole, pH 7.9) plus L-rhamnose. […]
IRD700- and DY682-labeled oligos were from Eurofins MWG Operon. […] EMSA gels were imaged using an Odyssey infrared imager (LI-COR, Lincoln, Nebr.), and quantified using the Odyssey software, version 3.0.30. […] Inhibition values were calculated and graphs were drawn as for in vivo dose-response experiments.

## CCCCN1C=C(c2ccc3ccccc3n2)C(C[N+](=O)[O-])c2ccccc21 (stereo not shown) [Compound 1, 1-butyl-4-(nitromethyl)-3-quinolin-2-yl-4H-quinoline]
[1]; 40 μM SE-1, normalized to rrsA
  expression of control gene gapA: no decrease
[1]; SE-1 20 μM
  Average ΔΔCt: 1
  Ct: 27.33
  RQ (2^−ΔΔCt): 0.5
  ΔΔCt^2 (normalized to rrsA): 1
[1]; SE-1 40 μM
  Average ΔΔCt: −0.69
  Ct: 26.76
  RQ (2^−ΔΔCt): 0.62
  ΔΔCt^2 (normalized to rrsA): −0.69
[2]
  LacI DNA binding retained: approximately 70%
